# Patent publication US7982043B2, “Protein tyrosine kinase enzyme inhibitors” (Wyeth LLC, priority 2003, dated 2011)
# Where two headings read alike, the source gives them in different places.
# Legend:
# [1] = target: T1, recombinant cytoplasmic domain of HER-2 (Homo sapiens, UniProt P04626); test: Cell-free autophosphorylation kinase assay (ELISA), HER-2; type: biochemical
# T1 construct: In a cell-free autophosphorylation assay using the recombinant cytoplasmic domain of HER-2
# 3T3 cells = test: Cell proliferation assay (SRB), 3T3; type: cell-based, mouse; settings: Mus musculus
# [2] = target: mouse fibroblast cell line transfected with the HER-2 oncogene (3T3/neu) (UniProt P04626, cells depend on it, species not given); test: Cell proliferation assay (SRB), 3T3/neu; type: cell-based; settings: EGFR −, Her-2 +++; 2 days, SRB; read-out: CELL IC50 3T3/NEU (converted)
# A431 cells = test: Cell proliferation assay (SRB), A431; type: cell-based; settings: Homo sapiens, A-431, 48 h; EGFR +++, Her-2 +; 2 days, SRB; read-out: CELL IC50 A431
# SK-Br-3 cells = test: Cell proliferation assay (SRB), SK-Br-3; type: cell-based; settings: Homo sapiens, SK-BR-3, 48 h; EGFR −, Her-2 +++; 2 days, SRB; read-out: CELL IC50 SKBr3
# BT474 cells = test: Cell proliferation assay (SRB), BT474; type: cell-based, human; settings: Homo sapiens, BT-474, 144 h; EGFR +, Her-2 +++; 6 days, SRB; read-out: CELL IC50 BT474
# MDA-MB-435 cells = test: Cell proliferation assay (SRB), MDA-MB-435; type: cell-based; settings: Homo sapiens, MDA-MB-435, 48 h; EGFR −, Her-2 −; 2 days, SRB; read-out: CELL IC50 MDA-MB-435
# SW620 cells = test: Cell proliferation assay (SRB), SW620; type: cell-based; settings: Homo sapiens, SW-620, 48 h; EGFR −, Her-2 −; 2 days, SRB; read-out: CELL IC50 SW620
# Her-2 = target: T2, Her-2 (Homo sapiens, UniProt P04626); test: Her-2 receptor phosphorylation in BT474 cells (immunoblot); type: cell-based
# T2 construct: For Her-2 and EGFR phosphorylation assays, cells (BT474 and A431, respectively) were incubated with various concentrations of compound; endogenous in cells; host or cells: BT474
# [3] = test system: xenografts of 3T3/neu cells; test: 3T3/neu tumor xenograft in nude mice; type: in vivo, mouse; settings: for tumor growth inhibition: day 21
# BT474 xenografts = test: BT474 tumor xenograft in nude mice; type: in vivo, mouse; settings: day 21
# xenografts of SUM-190 = test: SUM-190 tumor xenograft in nude mice; type: in vivo, mouse; settings: 40 mg/kg/day PO, day 28
# xenografts of SK-OV-3 = test: SK-OV-3 tumor xenograft in nude mice; type: in vivo, mouse; settings: day 35
# [4] = test system: HER-2 overexpressing human xenograft models; test: HER-2 overexpressing human xenograft models (overall); type: in vivo, mouse
# EGFR [5] = target: T3, EGFR (Homo sapiens, UniProt P00533); test: Cell-free autophosphorylation kinase assay (ELISA), EGFR; type: biochemical; set-up: Purified recombinant C-terminal fragment of each enzyme is incubated with ATP; settings: read-out: Enzyme IC50 EGFR (converted)
# Target sequence in this assay (P00533 669-1210 limits assumed): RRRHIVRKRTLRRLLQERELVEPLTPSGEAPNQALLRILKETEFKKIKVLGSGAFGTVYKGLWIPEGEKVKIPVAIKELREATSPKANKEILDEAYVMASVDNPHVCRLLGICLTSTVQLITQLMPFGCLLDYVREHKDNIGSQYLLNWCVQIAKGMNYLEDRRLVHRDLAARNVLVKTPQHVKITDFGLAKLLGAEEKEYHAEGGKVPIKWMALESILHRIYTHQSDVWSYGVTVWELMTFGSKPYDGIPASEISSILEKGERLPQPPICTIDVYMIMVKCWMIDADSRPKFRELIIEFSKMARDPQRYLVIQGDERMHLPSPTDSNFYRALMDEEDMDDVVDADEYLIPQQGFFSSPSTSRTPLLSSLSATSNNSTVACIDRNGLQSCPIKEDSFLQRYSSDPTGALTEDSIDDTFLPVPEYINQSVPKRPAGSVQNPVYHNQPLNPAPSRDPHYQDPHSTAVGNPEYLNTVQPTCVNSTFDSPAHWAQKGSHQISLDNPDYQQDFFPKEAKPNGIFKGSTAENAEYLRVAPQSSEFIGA
# EGFR [6] = target: T3, EGFR; test: EGFR receptor phosphorylation in A431 cells (immunoblot); type: cell-based; set-up: They also repressed EGF-dependent phosphorylation of EGFR in A431 cells; endogenous in cells; host or cells: A431
# Target sequence in this assay (P00533 25-1210): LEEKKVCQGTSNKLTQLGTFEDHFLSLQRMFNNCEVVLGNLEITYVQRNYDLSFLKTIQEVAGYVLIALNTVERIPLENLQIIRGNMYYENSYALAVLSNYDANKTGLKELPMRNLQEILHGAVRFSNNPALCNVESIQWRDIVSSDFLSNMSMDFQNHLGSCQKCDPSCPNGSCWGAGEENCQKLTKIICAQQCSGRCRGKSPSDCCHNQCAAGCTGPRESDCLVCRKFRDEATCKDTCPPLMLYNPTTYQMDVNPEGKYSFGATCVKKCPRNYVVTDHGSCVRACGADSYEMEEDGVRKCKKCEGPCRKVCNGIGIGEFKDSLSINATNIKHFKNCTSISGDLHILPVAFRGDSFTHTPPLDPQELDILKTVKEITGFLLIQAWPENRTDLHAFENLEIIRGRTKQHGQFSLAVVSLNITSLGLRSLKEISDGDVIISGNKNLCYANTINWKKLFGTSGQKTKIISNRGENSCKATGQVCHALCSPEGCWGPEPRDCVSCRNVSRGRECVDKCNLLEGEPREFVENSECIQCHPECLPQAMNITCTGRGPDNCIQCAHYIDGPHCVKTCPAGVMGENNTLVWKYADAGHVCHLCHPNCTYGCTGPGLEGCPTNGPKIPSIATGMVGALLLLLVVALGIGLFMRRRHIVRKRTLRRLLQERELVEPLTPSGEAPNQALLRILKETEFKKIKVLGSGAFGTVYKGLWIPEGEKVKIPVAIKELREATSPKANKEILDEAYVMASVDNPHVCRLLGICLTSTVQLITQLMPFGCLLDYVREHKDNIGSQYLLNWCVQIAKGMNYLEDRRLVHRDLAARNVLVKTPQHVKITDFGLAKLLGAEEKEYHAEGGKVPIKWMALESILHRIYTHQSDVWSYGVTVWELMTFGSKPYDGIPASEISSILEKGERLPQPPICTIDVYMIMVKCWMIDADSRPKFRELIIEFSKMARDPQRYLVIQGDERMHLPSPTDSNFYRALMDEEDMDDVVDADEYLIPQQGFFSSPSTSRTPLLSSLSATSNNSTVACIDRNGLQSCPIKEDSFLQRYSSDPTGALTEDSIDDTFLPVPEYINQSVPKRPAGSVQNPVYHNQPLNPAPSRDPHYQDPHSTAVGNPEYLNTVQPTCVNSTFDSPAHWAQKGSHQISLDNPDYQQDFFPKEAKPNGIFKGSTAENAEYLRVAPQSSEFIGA
# T1 sequence (P04626 676-1255 limits assumed): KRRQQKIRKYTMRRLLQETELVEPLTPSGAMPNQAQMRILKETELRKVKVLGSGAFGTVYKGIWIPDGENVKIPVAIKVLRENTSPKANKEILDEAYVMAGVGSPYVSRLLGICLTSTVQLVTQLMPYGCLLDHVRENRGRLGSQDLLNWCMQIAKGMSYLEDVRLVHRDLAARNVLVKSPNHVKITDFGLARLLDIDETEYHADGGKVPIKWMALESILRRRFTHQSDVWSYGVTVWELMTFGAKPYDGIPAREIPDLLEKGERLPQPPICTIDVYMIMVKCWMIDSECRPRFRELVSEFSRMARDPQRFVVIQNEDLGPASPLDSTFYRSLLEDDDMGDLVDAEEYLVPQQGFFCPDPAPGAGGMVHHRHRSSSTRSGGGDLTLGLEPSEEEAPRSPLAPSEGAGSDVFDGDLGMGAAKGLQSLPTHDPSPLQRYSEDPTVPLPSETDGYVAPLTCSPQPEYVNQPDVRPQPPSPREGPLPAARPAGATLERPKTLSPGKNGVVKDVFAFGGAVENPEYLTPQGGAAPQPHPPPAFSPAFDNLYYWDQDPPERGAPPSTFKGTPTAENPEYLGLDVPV
# T2 sequence (P04626 23-1255): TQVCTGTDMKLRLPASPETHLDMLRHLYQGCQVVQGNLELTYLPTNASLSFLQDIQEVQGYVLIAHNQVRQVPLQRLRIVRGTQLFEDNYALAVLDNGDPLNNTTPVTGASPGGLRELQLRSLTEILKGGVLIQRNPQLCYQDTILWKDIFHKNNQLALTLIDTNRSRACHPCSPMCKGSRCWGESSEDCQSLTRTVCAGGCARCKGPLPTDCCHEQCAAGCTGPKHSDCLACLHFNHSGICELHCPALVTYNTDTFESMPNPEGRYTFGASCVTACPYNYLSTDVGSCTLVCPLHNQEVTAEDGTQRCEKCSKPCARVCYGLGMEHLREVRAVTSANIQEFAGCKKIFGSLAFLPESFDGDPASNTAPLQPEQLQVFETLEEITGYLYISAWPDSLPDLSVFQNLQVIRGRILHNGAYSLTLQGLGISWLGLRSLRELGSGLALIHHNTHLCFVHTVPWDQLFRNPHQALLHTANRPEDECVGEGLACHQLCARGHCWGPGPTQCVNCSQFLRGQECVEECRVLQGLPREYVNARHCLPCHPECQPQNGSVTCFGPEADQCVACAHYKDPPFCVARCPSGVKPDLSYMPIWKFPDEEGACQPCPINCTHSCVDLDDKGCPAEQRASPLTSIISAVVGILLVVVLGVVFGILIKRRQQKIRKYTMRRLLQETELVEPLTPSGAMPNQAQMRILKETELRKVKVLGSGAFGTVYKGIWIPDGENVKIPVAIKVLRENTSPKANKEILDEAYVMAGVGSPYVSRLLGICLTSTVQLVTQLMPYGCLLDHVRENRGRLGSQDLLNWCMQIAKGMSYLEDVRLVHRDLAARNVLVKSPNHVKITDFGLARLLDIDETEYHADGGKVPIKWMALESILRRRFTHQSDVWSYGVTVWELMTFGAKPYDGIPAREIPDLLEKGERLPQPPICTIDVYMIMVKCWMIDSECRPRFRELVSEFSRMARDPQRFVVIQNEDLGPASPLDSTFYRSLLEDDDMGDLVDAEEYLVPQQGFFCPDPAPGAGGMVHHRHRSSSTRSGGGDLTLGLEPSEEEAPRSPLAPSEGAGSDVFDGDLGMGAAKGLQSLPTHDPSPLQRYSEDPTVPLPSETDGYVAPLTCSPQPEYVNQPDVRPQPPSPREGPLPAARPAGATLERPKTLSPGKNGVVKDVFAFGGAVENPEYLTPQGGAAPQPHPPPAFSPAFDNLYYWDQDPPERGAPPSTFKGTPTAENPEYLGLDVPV
smiles,measurement,setting,value
"CCOc1cc2ncc(C#N)c(Nc3ccc(OCc4cccc(F)c4)c(Cl)c3)c2cc1NC(=O)/C=C/CN(C)C [Example 3, (E)-N-(4-{3-chloro-4-[(3-fluorobenzyl)oxy]anilino}-3-cyano-7-ethoxy-6-quinolinyl)-4-(dimethylamino)-2-butenamide]",inhibition of the HER-2 enzyme (in words),[1],potent inhibitors
same,IC50,"[1]; HER-2 enzyme activity reduced by 50% (IC50), span over the three inhibitors",33 to 65 nM
same,Enzyme IC50 HER-2,"[1]; autophosphorylation, ELISA",0.019 µg/mL
same,IC50,"3T3 cells; NIH3T3, 48 h, EGFR −, Her-2 −, 2 days, SRB, read-out: CELL IC50 3T3",0.52 µg/mL
same,IC50,"3T3 cells; NIH3T3, span over the three compounds, read-out: IC50 isogenic untransfected cells (3T3)",683 to 906 nM
same,GI50,[2],4.01 nM
same,IC50,A431 cells,0.069 µg/mL
same,IC50,SK-Br-3 cells,0.0015 µg/mL
same,IC50,BT474 cells,0.0024 µg/mL
same,IC50,MDA-MB-435 cells,0.51 µg/mL
same,IC50,SW620 cells,0.29 µg/mL
same,IC50,"Her-2; Her-2 phosphorylation, 3 hours at 37° C., immunoblot, read-out: IC50 receptor phosphorylation BT474 (converted)",22.6 nM
same,IC50,"Her-2; ligand-independent receptor phosphorylation decreased by 50% (IC50) in BT474 cells, span over the three compounds",5 to 23 nM
same,"tumor growth inhibition, statistically-significant","[3]; 10 mg/kg/day PO, two other independent tests",21-33%
same,tumor growth inhibition,[3]; 20 mg/kg/day PO,65%
same,tumor growth inhibition,[3]; 40 mg/kg/day PO,97%
same,tumor growth inhibition,[3]; 80 mg/kg/day PO,99%
same,minimum efficacious dose (MED),"[3]; smallest dose with sustained, statistically-significant (p<0.05) reduction of tumor growth",10 mg/kg/day
same,maximum tumor growth inhibition,BT474 xenografts; 10 mg/kg/day PO,59%
same,maximum tumor growth inhibition,BT474 xenografts; 40 mg/kg/day PO,96%
same,tumor growth inhibition,xenografts of SUM-190,94%
same,tumor growth inhibition,xenografts of SK-OV-3; 20 mg/kg/day PO,86%
same,tumor growth inhibition,xenografts of SK-OV-3; 60 mg/kg/day PO,91%
same,tumor behaviour after treatment was completed (in words),[4]; after end of treatment,evidence of re-growth
same,tumor regression (in words),[4]; during dosing,no decrease in tumor size below the initial size
same,MED in the HER-2 overexpressing human xenograft models,"[4]; mouse, in vivo",10 mg/kg/day
same,IC50,EGFR [5],33.1 nM
same,IC50 receptor phosphorylation A431,"EGFR [6]; EGFR phosphorylation, 3 hours at 37° C., immunoblot",0.0042 µg/mL
same,IC50,"EGFR [6]; span over the three compounds, read-out: EGF-dependent phosphorylation of EGFR in A431 cells IC50",3 to 7 nM
